Changes are numbered by the printed parent chain.
What was measured:
Assay in all cases: Steady-state apparent kinetic constants with substrates
Format in all cases: biochemical
HvExoI W286F mutant = target: T1, HvExoI W286F mutant (Hordeum vulgare, UniProt Q9XEI3, W311F); conditions: substance is the substrate
T1 sequence (Q9XEI3 26-630 W311F): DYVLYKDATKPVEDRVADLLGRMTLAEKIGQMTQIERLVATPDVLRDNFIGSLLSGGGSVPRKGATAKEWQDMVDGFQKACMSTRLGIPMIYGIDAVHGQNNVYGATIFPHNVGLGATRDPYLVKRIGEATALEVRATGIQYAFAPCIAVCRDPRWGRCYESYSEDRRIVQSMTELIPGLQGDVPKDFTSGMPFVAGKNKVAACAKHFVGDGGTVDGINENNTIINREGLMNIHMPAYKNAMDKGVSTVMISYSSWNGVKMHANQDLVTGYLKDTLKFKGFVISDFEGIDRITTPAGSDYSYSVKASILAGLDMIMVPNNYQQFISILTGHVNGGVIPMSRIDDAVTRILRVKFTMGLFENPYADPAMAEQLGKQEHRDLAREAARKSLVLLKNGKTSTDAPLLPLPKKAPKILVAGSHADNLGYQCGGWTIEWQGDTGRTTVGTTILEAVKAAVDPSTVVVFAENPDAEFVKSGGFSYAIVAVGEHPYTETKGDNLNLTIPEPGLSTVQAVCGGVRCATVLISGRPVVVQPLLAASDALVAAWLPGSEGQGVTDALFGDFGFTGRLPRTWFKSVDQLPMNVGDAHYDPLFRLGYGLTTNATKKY
Protocol: (§1) Dependency of activities of WT and mutant HvExoI on pH (McIlvaine buffers in the pH range of 3.5–8.5 at 30 °C) and temperature (100 mM sodium acetate buffer, pH 5.25, temperature range 0–80 °C, 15 min incubations) were determined using 0.2% (w/v) 4NP-Glc[21],[59]. Relative rates of hydrolysis of β-linked poly-, oligosaccharides, and aryl-glucosides were determined using near-homogenous HvExoI at 50 pmoles. […] Kinetic parameters were calculated from the analyses of Michaelis-Menten plots with Grafit 7.0.3[62] and processed by a proportional weighted fit, using nonlinear regression. The relative rates of hydrolysis, kinetic, and inhibition data were rounded to one or two decimal points (Supplementary Tables 2–4).

HvExoI W434F mutant = target: T2, HvExoI W434F mutant (Hordeum vulgare, UniProt Q9XEI3, W459F); conditions: substance is the substrate
T2 sequence (Q9XEI3 26-630 W459F): T1 sequence (Q9XEI3 26-630 W311F) with F286W, W434F
Protocol: as §1

HvExoI W434Y mutant = target: T3, HvExoI W434Y mutant (Hordeum vulgare, UniProt Q9XEI3, W459Y); conditions: substance is the substrate
T3 sequence (Q9XEI3 26-630 W459Y): T1 sequence (Q9XEI3 26-630 W311F) with F286W, W434Y
Protocol: as §1

HvExoI W434A mutant = target: T4, HvExoI W434A mutant (Hordeum vulgare, UniProt Q9XEI3, W459A)
T4 sequence (Q9XEI3 26-630 W459A): T1 sequence (Q9XEI3 26-630 W311F) with F286W, W434A
Protocol: as §1

## laminarin
HvExoI W286F mutant
  Km: 200 ± 10 µM
  kcat: 4.5 ± 0.3 s⁻¹
HvExoI W434F mutant
  Km: 200 ± 10 µM
  kcat: 8.0 ± 0.7 s⁻¹
HvExoI W434Y mutant
  Km: 100 ± 10 µM
  kcat: 0.8 ± 0.1 s⁻¹

## OC[C@H]1O[C@@H](O[C@H]2[C@H](O)[C@@H](CO)OC(O)[C@@H]2O)[C@H](O)[C@@H](O)[C@@H]1O (stereo partly shown) [Laminaribiose]
HvExoI W434A mutant
  fold decrease of kcat compared to WT: about 21 fold

Source: paper PMC9508125, “The evolutionary advantage of an aromatic clamp in plant family 3 glycoside exo-hydrolases” (Nature Communications, 2022)
